# Assay results taken from patent US7964629B2, “Inhibitors of isoprenylcysteine carboxyl methyltransferase” (Duke Universtiy, priority 2005, dated 2011).
# Where two headings read alike, the source gives them in different places.
# How the values were obtained:
# [1] = system: Icmt+/+ mouse embryonic fibroblasts; experiment: Cell growth determination, wild-type fibroblasts; type: cell-based; settings: 15, 20, 30 μM; 10% serum; six days
# Procedure: (§1) FIGS. 2A-2C. […] Media and drug were replaced daily, and cell growth was monitored for six days. Data represent the mean and standard deviation of four replicate wells. (FIG. 2A) Icmt^+/+ cells; (FIG. 2B) Icmt^−/− cells; (C) Icmt^−/− cells stably transfected with a gene expressing human ICMT (Icmt^−/−/ICMT cells).
# (§2) Cell growth assays were performed in a 96-well plate format. Briefly, 500 to 1000 cells were plated into 96-well plates. After the cells were allowed to attach for 24 h, media was removed and replaced with media containing either compound or vehicle. Media and drug were replaced every 24 h throughout the assay. Cell determinations were made at the times indicated in the respective figure by adding 19 μl of CellTiter 96 AqueousOne solution to each well followed by incubation of the plates in the dark at 37° C. for two hr after which the absorbance at 490 nm was read. Background absorbance from blank wells containing only media with compound or vehicle was subtracted from each test well. Typically, 3-6 replicate wells were employed for each point in each assay.
# [2] = system: Akt phosphorylation in DKOB8 colon cancer cells; experiment: Phosphoprotein analysis: EGF-stimulated Akt; type: cell-based; settings: 1 μM, three days, 1% serum, EGF 10 min
# Procedure: FIGS. 3A and 3B. Impact of cysmethynil treatment on Ras localization and signaling. FIG. 3A. Mislocalization of GFP Ras in cysmethynil treated cells. […] Live cells were imaged on a spinning disk confocal microscope. FIG. 3B. Impact of cysmethynil treatment on EGF-stimulated protein phosphorylation. […] Where indicated, cells were treated with EGF for the final 10 min prior to harvesting. Cell lysates containing equal amounts of protein were resolved on a 13% SDS-polyacrylamide gel and probed with antiphospho-Akt, antiphospho-p42/44 MAPK or anti-β-tubulin antibody as indicated. […] Half of the wells were then treated with EGF (10 ng/ml) and half with vehicle for 10 min. Cells were rinsed with PBS and harvested in SDS-PAGE loading buffer. Total cell lysates (30 μg protein) were resolved on 4-20% Tris-glycine polyacrylamide gels (Invitrogen). Proteins were transferred to nitrocellulose and probed with a mix of anti-phospho-Akt and anti-phospho-p42/44 MAPK antibodies, or with anti-tubulin or anti-phospho NFκB antibody (Cell Signaling Technology) as indicated. Visualization was performed with alkaline phosphatase (Promega, Madison, Wis.) as per the manufacturer's instructions.
# [3] = system: DKOB8/GFP colon cancer cells; experiment: Soft agar growth assay, DKOB8/GFP; type: cell-based; settings: three weeks
# Procedure: FIGS. 4A-4C. Overexpression of Icmt rescues EGF-stimulated MAPK activation and anchorage-independent growth in cysmethynil-treated cells. FIG. 4A. Creation of cell lines stably overexpressing Icmt. DKOB8 cells were engineered to stably express either GFP alone or a GFP-Icmt fusion protein. Membrane fractions from GFP and GFP-ICMT expressing lines were assayed for Icmt activity using the BFC assay. FIG. 4B. Overexpression of Icmt restores EGF-stimulated MAPK activation in cysmethynil-treated cells. […] Where indicated, cells were treated with EGF for the final 10 min prior to harvesting. Cell lysates containing equal amounts of protein were resolved on a 13% SDS-polyacrylamide gel and probed with antiphospho-p42/44 MAPK or, as a control, antiphospho NFκB antibody as indicated. FIG. 4C. […] After 3 weeks of growth, colonies were stained with MTT and imaged. Soft agar culture media was prepared with 10% FBS in 1× minimum essential medium (MEM) alpha. […] Cells were harvested by trypsinization at ˜80% confluence, mixed into top agar (10,000 cells/plate; 0.3% noble agar in soft agar culture media) and poured onto prepared plates. […] For each condition, triplicate samples (each consisting of three plates) were prepared. […]
# [4] = biological target: SssI DNA methyltransferase (Spiroplasma monobiae, UniProt P15840); experiment: AdoMet-dependent DNA methyltransferase inhibition (results not shown); type: biochemical; settings: concentrations up to 50 μM
# SssI DNA methyltransferase, sequence (P15840 whole entry): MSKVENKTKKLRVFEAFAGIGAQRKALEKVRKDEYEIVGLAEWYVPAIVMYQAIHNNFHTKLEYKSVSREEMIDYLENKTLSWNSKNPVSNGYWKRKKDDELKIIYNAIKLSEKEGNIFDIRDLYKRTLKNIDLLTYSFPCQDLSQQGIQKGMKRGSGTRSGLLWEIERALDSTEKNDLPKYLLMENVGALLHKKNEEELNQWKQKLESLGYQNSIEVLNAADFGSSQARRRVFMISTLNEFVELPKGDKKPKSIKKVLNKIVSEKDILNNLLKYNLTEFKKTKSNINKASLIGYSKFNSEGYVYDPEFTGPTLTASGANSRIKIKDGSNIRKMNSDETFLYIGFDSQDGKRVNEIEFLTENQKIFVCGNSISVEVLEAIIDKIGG
# [5] = system: RhoA in MDA-MB-231 breast cancer cells; experiment: Immunoblot of steady-state Rho level; type: cell-based; settings: 20 μM, 6 day treatment
# Procedure: The impact of Icmt inhibition on function of the geranylgeranylated GTPases Rho and Rac in cells has been examined. This study was carried out in MD-MBA-231 breast cancer cells. Tumorigenesis and metastatic behavior of these cells is dependent on high levels of Rho GTPases in particular. […] Cells were harvested and lysates containing equal amounts of protein were resolved by SDS-PAGE and subjected to immunoblot analysis with specific antibodies to RhoA (FIG. 7A), or Rac1 (FIG. 7B). As a control, immunoblot analysis for α-tubulin was carried out on all samples.
# [6] = system: Icmt−/− mouse embryonic fibroblasts; experiment: Cell growth determination, Icmt-deficient fibroblasts; type: cell-based; settings: 15, 20, 30 μM; 10% serum; six days
# Procedure: as §1, §2
# recombinant human Icmt = biological target: T1, recombinant human Icmt (Homo sapiens, UniProt O60725); experiment: Icmt assay: [3H]methyl incorporation from [3H]AdoMet into BFC; type: biochemical
# T1 construct: recombinant baculovirus containing the entire open reading frame of the human Icmt cDNA; made in house; host or cells: Sf9 insect cells (baculovirus); membrane fraction used
# T1 sequence (O60725 whole entry): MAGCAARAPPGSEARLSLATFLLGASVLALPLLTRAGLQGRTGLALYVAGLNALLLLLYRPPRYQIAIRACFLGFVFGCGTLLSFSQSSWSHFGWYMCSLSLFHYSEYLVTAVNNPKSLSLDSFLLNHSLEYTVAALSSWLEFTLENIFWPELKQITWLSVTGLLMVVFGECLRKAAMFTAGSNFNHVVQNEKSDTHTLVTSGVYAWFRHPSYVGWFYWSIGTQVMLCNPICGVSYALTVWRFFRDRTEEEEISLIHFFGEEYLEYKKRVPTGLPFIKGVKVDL
structure (smiles),measurement,setting,value
"CCCCCCCCn1cc(CC(N)=O)c2cc(-c3cccc(C)c3)ccc21 [cysmethynil, 2-[5-(3-methylphenyl)-1-octyl-1H-indol-3-yl]acetamide]",cell growth,[1],dose-dependent inhibition of growth
same,EGF-induced increase in Akt phosphorylation,[2],partially but not completely attenuated
same,ability of cells to form colonies in soft agar,[3]; 20 μM,dramatically reducing the ability of cells to form colonies
same,ability to grow in soft agar,[3]; 10 or 20 μM,significantly impaired
same,inhibition of SssI DNA methyltransferase,[4],nor did it inhibit
same,Rho levels,[5],almost undetectable
same,cell growth,[6],largely unaffected
same,IC50,"recombinant human Icmt; BFC substrate, substrates and inhibitor premixed, reaction initiated by addition of enzyme, read-out: IC50 for Icmt inhibition",2400 nM
same,IC50,"recombinant human Icmt; Table 1, R1 substituent x scaffold matrix, read-out: IC50",2100 ± 900 nM
same,IC50,"recombinant human Icmt; Table 3, pre-incubation with Icmt for 30 min at 37° C., read-out: IC50 PI (converted)",290 nM
same,IC50,"recombinant human Icmt; Table 3, without pre-incubation of the enzyme with the compound, read-out: IC50 No PI",2100 ± 900 nM
same,IC50,"recombinant human Icmt; enzyme premixed with inhibitor and AdoMet for 15 min prior to initiation with BFC, read-out: IC50 for Icmt inhibition",< 200 nM
